Where two headings read alike, the source gives them in different places.
Experiments:
BT474 cells = experiment: Cell proliferation assay Method B, BT474; format: cell-based; settings: Homo sapiens, BT-474, 72 hours, read-out: antiproliferative activity IC50, BT474
Description: (§1) Cancer cell lines were plated at 5,000 to 10,000 per well in 96-well flat bottomed plates with various concentration of compounds. The cells were incubated with compounds for 72 hours in the presence of 0.5% of fetal bovine serum. Growth inhibition was accessed by adenosine triphosphate (ATP) content assay using Promega CellTiter-Glo kit. Promega CellTiter-Glo kit is an ATP monitoring system based on firefly luciferase. Briefly, 16 μl of mammalian cell lysis and substrate solution was added to 84 μl of culture medium per well to lyse the cells and stabilize the ATP. The mixture was shaken and incubated for 30 minutes and subsequently the luminescence was measured.

H1993 cells [1] = experiment: Cell proliferation assay Method B, H1993; format: cell-based; settings: Homo sapiens, NCI-H1993; NSCLC; H1993; 72 hours, 0.5% fetal bovine serum, CellTiter-Glo; read-out: antiproliferative activity IC50, H1993
Description: as §1

Ca127 cells = experiment: Cell proliferation assay Method B, Ca127; format: cell-based; settings: HNC; Ca127; 72 hours, 0.5% fetal bovine serum, CellTiter-Glo; read-out: antiproliferative activity IC50, Ca127
Description: as §1

MDA-MB-231 cells = experiment: Cell proliferation assay Method B, MDA-MB-231; format: cell-based; settings: Homo sapiens, 72 hours, 0.5% fetal bovine serum, CellTiter-Glo, read-out: antiproliferative activity IC50, MDA-MB-231
Description: as §1

RPMI-8226 cells = experiment: Cell proliferation assay Method B, RPMI-8226; format: cell-based; settings: Homo sapiens, Multiple Myeloma, 72 hours, 0.5% fetal bovine serum, CellTiter-Glo, read-out: antiproliferative activity IC50, RPMI-8226
Description: as §1

MDA-MB-436 cells = experiment: Cell proliferation assay Method B, MDA-MB-436; format: cell-based; settings: Homo sapiens, 72 hours, 0.5% fetal bovine serum, CellTiter-Glo, read-out: antiproliferative activity IC50, MDA-MB-436
Description: as §1

H1975 cells = experiment: Cell proliferation assay Method B, H1975; format: cell-based; settings: Homo sapiens, NCI-H1975; NSCLC; H1975; 72 hours, 0.5% fetal bovine serum, CellTiter-Glo; read-out: antiproliferative activity IC50, H1975
Description: as §1

[2] = system: HDACs (HeLa cell nuclear extracts); experiment: HDAC enzymatic activity, Biomol Color de Lys system; format: biochemical
In short: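 IC50 from sigmoidal dose-response fits of fluorescence (Ex 350–380, Em 440–460 nm). Compounds in DMSO dilution series incubated 1 h at 25 °C with HeLa nuclear extract HDACs and colorimetric substrate, pH 8.0 Tris/Cl buffer with NaCl, KCl, MgCl2, before developer termination.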

Sk-Mel-28 cells [3] = experiment: Cell proliferation assay Method B, Sk-Mel-28; format: cell-based; settings: Homo sapiens; Melanoma; Sk-Mel-28; 72 hours, 0.5% fetal bovine serum, CellTiter-Glo; read-out: antiproliferative activity IC50, Sk-Mel-28
Description: as §1

A375 cells = experiment: Cell proliferation assay Method B, A375; format: cell-based; settings: Homo sapiens, A-375; Melanoma; A375; 72 hours, 0.5% fetal bovine serum, CellTiter-Glo; read-out: antiproliferative activity IC50, A375
Description: as §1

U87MG cells = experiment: Cell proliferation assay Method B, U87MG; format: cell-based; settings: Homo sapiens, U-87 MG; Glioblastoma; U87MG; 72 hours, 0.5% fetal bovine serum, CellTiter-Glo; read-out: antiproliferative activity IC50, U87MG
Description: as §1

MDA-MB-468 cells = experiment: Cell proliferation assay Method B, MDA-MB-468; format: cell-based; settings: Homo sapiens, 72 hours, 0.5% fetal bovine serum, CellTiter-Glo, read-out: antiproliferative activity IC50, MDA-MB-468
Description: as §1

HCC1806 cells = experiment: Cell proliferation assay Method B, HCC1806; format: cell-based; settings: Homo sapiens, Breast, 72 hours, read-out: antiproliferative activity IC50, HCC1806
Description: as §1

MDA-MB-361 cells = experiment: Cell proliferation assay Method B, MDA-MB-361; format: cell-based; settings: Homo sapiens, Breast, 72 hours, read-out: antiproliferative activity IC50, MDA-MB-361
Description: as §1

ZR-75-1 cells = experiment: Cell proliferation assay Method B, ZR-75-1; format: cell-based; settings: Homo sapiens, Breast, 72 hours, read-out: antiproliferative activity IC50, ZR-75-1
Description: as §1

T47D cells = experiment: Cell proliferation assay Method B, T47D; format: cell-based; settings: Homo sapiens, Breast, 72 hours, read-out: antiproliferative activity IC50, T47D
Description: as §1

SKBr3 cells = experiment: Cell proliferation assay Method B, SKBr3; format: cell-based; settings: Homo sapiens, SK-BR-3, Breast, 72 hours, read-out: antiproliferative activity IC50, SKBr3
Description: as §1

MCF-7 cells = experiment: Cell proliferation assay Method B, MCF-7; format: cell-based; settings: Homo sapiens, MCF7, Breast, 72 hours, read-out: antiproliferative activity IC50, MCF-7
Description: as §1

HCC1500 cells = experiment: Cell proliferation assay Method B, HCC1500; format: cell-based; settings: Breast, 72 hours, read-out: antiproliferative activity IC50, HCC1500
Description: as §1

HCC1937 cells = experiment: Cell proliferation assay Method B, HCC1937; format: cell-based; settings: Homo sapiens, 72 hours, 0.5% fetal bovine serum, CellTiter-Glo, read-out: antiproliferative activity IC50, HCC1937
Description: as §1

HCT-118 cells = experiment: Cell proliferation assay Method A (ATPlite), HCT-118; format: cell-based; settings: 72 hours, read-out: antiproliferative activity IC50, HCT-118
Description: (§2) Cancer cell lines were plated at 5,000 to 10,000 per well in 96-well flat bottomed plates with various concentration of compounds. The cells were incubated with compounds for 72 hours in the presence of 0.5% of fetal bovine serum. Growth inhibition was accessed by adenosine triphosphate (ATP) content assay using Perkin Elmer ATPlite kit. ATPlite is an ATP monitoring system based on firefly luciferase. Briefly, 25 μl of mammalian cell lysis solution was added to 50 μl of phenol red-free culture medium per well to lyse the cells and stabilize the ATP. 25 μl of substrate solution was then added to the well and subsequently the luminescence was measured.

BT-474 cells = experiment: Cell proliferation assay Method A (ATPlite), BT-474; format: cell-based; settings: Homo sapiens, 72 hours, read-out: antiproliferative activity IC50, BT-474
Description: as §2

H1993 cells [4] = experiment: Cell proliferation assay Method A (ATPlite), H1993; format: cell-based; settings: Homo sapiens, NCI-H1993, 72 hours, read-out: antiproliferative activity IC50, H1993
Description: as §2

Sk-Mel-28 cells [5] = experiment: Cell proliferation assay Method A (ATPlite), Sk-Mel-28; format: cell-based; settings: Homo sapiens, 72 hours, read-out: antiproliferative activity IC50, Sk-Mel-28
Description: as §2

[6] = BT474, 0.5% fetal bovine serum, CellTiter-Glo

Compound: CC(=O)Nc1ccc(-c2nc(N3CCOCC3)c3sc(CN(C)c4ncc(C(=O)NO)cn4)cc3n2)cc1 [Compound 157, 2-(((2-(4-acetamidophenyl)-4-morpholinothieno[3,2-d]pyrimidin-6-yl)methyl)(methyl)amino)-N-hydroxypyrimidine-5-carboxamide]
- IC50 (BT474 cells; [6]): < 10 nM
- IC50 (H1993 cells [1]): 10 to 100 nM
- IC50 (Ca127 cells): 10 to 100 nM
- IC50 (MDA-MB-231 cells): 10 to 100 nM
- IC50 (RPMI-8226 cells): 10 to 100 nM
- IC50 (MDA-MB-436 cells): 10 to 100 nM
- IC50 (H1975 cells): 10 to 100 nM
- IC50 [2]: < 100 nM
- IC50 (Sk-Mel-28 cells [3]): 10 to 100 nM
- melting point: 228 to 230 °C
- IC50 (A375 cells): 10 to 100 nM
- IC50 (U87MG cells): 10 to 100 nM
- IC50 (MDA-MB-468 cells): 10 to 100 nM

Compound: COc1ncc(-c2nc(N3CCOCC3)c3sc(CN(C)c4ncc(C(=O)NO)cn4)cc3n2)cn1 [Compound 261, N-Hydroxy-2-(((2-(2-methoxypyrimidin-5-yl)-4-morpholinothieno[3,2-d]pyrimidin-6-yl)methyl)(methyl)amino)pyrimidine-5-carboxamide]
- IC50 (BT474 cells; Breast, Method B): < 10 nM
- IC50 (HCC1806 cells): < 10 nM
- IC50 (MDA-MB-361 cells): < 10 nM
- IC50 (ZR-75-1 cells): < 10 nM
- IC50 [2]: < 100 nM
- IC50 (T47D cells): < 10 nM
- melting point: 215 to 220 °C
- IC50 (SKBr3 cells): 10 to 100 nM
- IC50 (MCF-7 cells): < 10 nM
- IC50 (HCC1500 cells): < 10 nM

Compound: CN(Cc1cc2nc(-c3cccc(O)c3)nc(N3CCOCC3)c2s1)c1ncc(C(=O)NO)cn1 [Compound 132, N-hydroxy-2-(((2-(3-hydroxyphenyl)-4-morpholinothieno[3,2-d]pyrimidin-6-yl)methyl)(methyl)amino)pyrimidine-5-carboxamide]
- IC50 (HCC1937 cells): 100 to 1000 nM
- IC50 (HCT-118 cells): < 100 nM
- IC50 (BT474 cells; [6]): < 10 nM
- IC50 (H1993 cells [1]): 10 to 100 nM
- IC50 (BT-474 cells): < 100 nM
- IC50 (Ca127 cells): 10 to 100 nM
- IC50 (RPMI-8226 cells): < 10 nM
- IC50 (H1993 cells [4]): < 100 nM
- IC50 (MDA-MB-436 cells): 10 to 100 nM
- IC50 (H1975 cells): 10 to 100 nM
- IC50 [2]: < 100 nM
- IC50 (Sk-Mel-28 cells [3]): 10 to 100 nM
- melting point: 175 to 181 °C
- IC50 (A375 cells): 10 to 100 nM
- IC50 (U87MG cells): 10 to 100 nM
- IC50 (Sk-Mel-28 cells [5]): < 100 nM
- IC50 (MDA-MB-468 cells): 100 to 1000 nM

Compound: CN(Cc1cc2nc(-c3ccc(N)nc3)nc(N3CCOCC3)c2s1)c1ncc(C(=O)NO)cn1 [Compound 110, 2-(((2-(6-Aminopyridin-3-yl)-4-morpholinothieno[3,2-d]pyrimidin-6-yl)methyl)(methyl)amino)-N-hydroxypyrimidine-5-carboxamide]
- IC50 (HCC1937 cells): 10 to 100 nM
- IC50 (HCT-118 cells): < 100 nM
- IC50 (BT474 cells; [6]): < 10 nM
- IC50 (H1993 cells [1]): 10 to 100 nM
- IC50 (BT-474 cells): < 100 nM
- IC50 (Ca127 cells): 10 to 100 nM
- IC50 (MDA-MB-231 cells): 10 to 100 nM
- IC50 (H1993 cells [4]): < 100 nM
- IC50 (MDA-MB-436 cells): 10 to 100 nM
- IC50 (H1975 cells): 10 to 100 nM
- IC50 [2]: < 100 nM
- IC50 (Sk-Mel-28 cells [3]): 10 to 100 nM
- melting point: 175 to 181 °C
- IC50 (A375 cells): 10 to 100 nM
- IC50 (U87MG cells): < 10 nM
- IC50 (Sk-Mel-28 cells [5]): < 100 nM
- IC50 (MDA-MB-468 cells): 10 to 100 nM

Compound: CN(Cc1cc2nc(-c3cnc(N)nc3)nc(N3CCOCC3)c2s1)c1ncc(C(=O)NO)cn1 [Compound 115, 2-(((2-(2-aminopyrimidin-5-yl)-4-morpholinothieno[3,2-d]pyrimidin-6-yl)methyl)(methyl)amino)-N-hydroxypyrimidine-5-carboxamide]
- IC50 (HCC1937 cells): 10 to 100 nM
- IC50 (HCT-118 cells): < 100 nM
- IC50 (BT474 cells; [6]): 10 to 100 nM
- IC50 (BT-474 cells): < 100 nM
- IC50 (Ca127 cells): 10 to 100 nM
- IC50 (H1993 cells [4]): < 100 nM
- IC50 (MDA-MB-436 cells): 100 to 1000 nM
- IC50 (H1975 cells): 10 to 100 nM
- IC50 [2]: < 100 nM
- IC50 (Sk-Mel-28 cells [3]): 10 to 100 nM
- melting point: 175 to 181 °C
- IC50 (A375 cells): 10 to 100 nM
- IC50 (U87MG cells): 10 to 100 nM
- IC50 (Sk-Mel-28 cells [5]): < 100 nM
- IC50 (MDA-MB-468 cells): 100 to 1000 nM
